# Test results reported in patent US11384055B2 (BIOMARIN PHARMACEUTICAL INC., priority 2017, dated 2022).
# Biological target: T1, Human GO (Homo sapiens, UniProt Q9UJM8)
# T1 construct: purchased Novus Biologicals NBP1-72412
# T1 sequence (Q9UJM8 1-370): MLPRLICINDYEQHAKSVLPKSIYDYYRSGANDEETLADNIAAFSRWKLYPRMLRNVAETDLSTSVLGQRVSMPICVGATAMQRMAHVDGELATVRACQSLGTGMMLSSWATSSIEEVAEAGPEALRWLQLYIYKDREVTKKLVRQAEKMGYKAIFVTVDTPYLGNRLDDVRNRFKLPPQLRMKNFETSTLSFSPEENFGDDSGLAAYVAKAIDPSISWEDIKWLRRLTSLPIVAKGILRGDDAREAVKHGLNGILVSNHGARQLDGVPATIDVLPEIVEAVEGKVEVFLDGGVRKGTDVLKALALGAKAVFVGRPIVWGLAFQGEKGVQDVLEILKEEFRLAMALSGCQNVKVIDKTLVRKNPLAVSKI
# Assay: GO enzymatic assay (coupled fluorescence/HRP assay, glycolate substrate)
# Format: biochemical
# Conditions: not given
# Method: Assay 1: GO Enzymatic Assay
# GO was incubated with its substrate, glycolate, in 50 mM potassium phosphate buffer, pH 7. […] The enzyme was optimized and the kinetics was determined.
# Compound inhibition was determined by adding various concentrations of inhibitors in the GO enzyme assay. The IC50 value for each measured compound was generated from sigmoidal dose-response (variable slope) curves with GraphPad Prism software (GraphPad Software, Inc., San Diego, Calif.) using the percent inhibition of GO activity relative to DMSO control.
row,SMILES,IC50
1,"O=C(O)c1[nH]nnc1Oc1ccc(-c2ccc(Cl)cc2)cc1 [Compound 86, 4-((4′-chloro-[1,1′-biphenyl]-4-yl)oxy)-1H-1,2,3-triazole-5-carboxylic acid]",< 100 nM
2,"O=C(O)c1[nH]nnc1Oc1ccc(Cl)c(Cl)c1 [Compound 88, 4-(3,4-dichlorophenoxy)-1H-1,2,3-triazole-5-carboxylic acid]",< 100 nM
3,"O=C(O)c1[nH]nnc1Oc1ccc(F)c(F)c1 [Compound 94, 4-(3,4-difluorophenoxy)-1H-1,2,3-triazole-5-carboxylic acid]",< 100 nM

# Same assay, conditions: Table 1; read-out: Range (range of IC50 values calculated from the enzymatic assays)
row,SMILES,IC50
1,"O=C(O)c1[nH]nnc1Nc1csc(-c2ccc(Cl)c(Cl)c2)n1 [Compound 61, ammonium 4-((2-(3,4-dichlorophenyl)thiazol-4-yl)amino)-1H-1,2,3-triazole-5-carboxylate]",< 100 nM
2,"O=C(O)c1[nH]nnc1Nc1ccc(-c2ccc(OC(F)(F)F)cc2)cc1 [Compound 62, 4-((4′-(trifluoromethoxy)-[1,1′-biphenyl]-4-yl)amino)-1H-1,2,3-triazole-5-carboxylic acid 2,2,2-trifluoroacetate]",< 100 nM
3,"CN(c1csc(-c2ccc(Cl)c(Cl)c2)n1)c1nn[nH]c1C(=O)O [Compound 63, 4-((2-(3,4-dichlorophenyl)thiazol-4-yl)(methyl)amino)-1H-1,2,3-triazole-5-carboxylic acid]",100 to 1000 nM
4,"O=C(O)c1[nH]nnc1Nc1nc(-c2ccc(OC(F)(F)F)c(Cl)c2)cs1 [Compound 64, 4-((4-(3-chloro-4-(trifluoromethoxy)phenyl)thiazol-2-yl)amino)-1H-1,2,3-triazole-5-carboxylic acid]",< 100 nM
5,"COC(=O)c1[nH]nnc1Nc1ccc(-c2ccc(OC(F)(F)F)cc2)cc1 [Compound 65, methyl 4-((4′-(trifluoromethoxy)-[1,1′-biphenyl]-4-yl)amino)-1H-1,2,3-triazole-5-carboxylate]",> 10000 nM
6,"O=C(O)CN(c1ccc(-c2ccc(Cl)cc2)cc1)c1nn[nH]c1C(=O)O [Compound 66, 4-((carboxymethyl)(4′-chloro-[1,1′-biphenyl]-4-yl)amino)-1H-1,2,3-triazole-5-carboxylic acid 2,2,2-trifluoroacetate]",1000 to 10000 nM
7,"O=C(O)c1[nH]nnc1NCc1cccc(-c2ccc(Cl)c(Cl)c2)c1 [Compound 67, 4-(((3′,4′-dichloro-[1,1′-biphenyl]-3-yl)methyl)amino)-1H-1,2,3-triazole-5-carboxylic acid]",100 to 1000 nM
8,"O=C(O)c1[nH]nnc1NCc1ccc(-c2ccc(Cl)c(Cl)c2)cc1 [Compound 68, 4-(((3′,4′-dichloro-[1,1′-biphenyl]-4-yl)methyl)amino)-1H-1,2,3-triazole-5-carboxylic acid]",< 100 nM
9,"O=C(O)c1[nH]nnc1Nc1ccc(Cl)c(Cl)c1 [Compound 69, 4-((3,4-dichlorophenyl)amino)-1H-1,2,3-triazole-5-carboxylic acid]",< 100 nM
10,"O=C(O)c1[nH]nnc1NC1CCCN(c2ccc(OC(F)(F)F)cc2)C1 (stereo not shown) [Compound 70, 4-((1-(4-(trifluoromethoxy)phenyl)piperidin-3-yl)amino)-1H-1,2,3-triazole-5-carboxylic acid]",100 to 1000 nM
11,"O=C(O)c1[nH]nnc1NC1CCN(c2ccc(Cl)cc2)CC1 [Compound 71, 4-((1-(4-chlorophenyl)piperidin-4-yl)amino)-1H-1,2,3-triazole-5-carboxylic acid 2,2,2-trifluoroacetate]",100 to 1000 nM
12,"O=C(OC1CC1)c1[nH]nnc1Nc1ccc(-c2ccc(OC(F)(F)F)cc2)cc1 [Compound 72, cyclopropyl 4-((4′-(trifluoromethoxy)-[1,1′-biphenyl]-4-yl)amino)-1H-1,2,3-triazole-5-carboxylate 2,2,2-trifluoroacetate]",> 10000 nM
13,O=C(O)c1[nH]nnc1NC1CCN(c2ccc(OC(F)(F)F)cc2)C1 (stereo not shown) [Compound 73],100 to 1000 nM
14,"O=C(O)c1[nH]nnc1NC1CCN(c2ccc(OC(F)(F)F)cc2)CC1 [Compound 74, 4-((1-(4-(trifluoromethoxy)phenyl)piperidin-4-yl)amino)-1H-1,2,3-triazole-5-carboxylic acid]",100 to 1000 nM
15,"CN(c1ccc(-c2ccc(Cl)cc2)cc1)c1nn[nH]c1C(=O)O [Compound 75, 4-((4′-chloro-[1,1′-biphenyl]-4-yl)(methyl)amino)-1H-1,2,3-triazole-5-carboxylic acid 2,2,2-trifluoroacetate]",100 to 1000 nM
16,"O=C(O)c1[nH]nnc1Nc1ccc2cc(Cl)ccc2n1 [Compound 76, 4-((6-chloroquinolin-2-yl)amino)-1H-1,2,3-triazole-5-carboxylic acid]",< 100 nM
17,"O=C(O)c1[nH]nnc1Nc1ccc2c(c1)CCCC2 [Compound 77, 4-((5,6,7,8-tetrahydronaphthalen-2-yl)amino)-1H-1,2,3-triazole-5-carboxylic acid]",1000 to 10000 nM
18,"O=C(O)c1[nH]nnc1Nc1ccc(Cl)c2ccccc12 [Compound 78, 4-((4-chloronaphthalen-1-yl)amino)-1H-1,2,3-triazole-5-carboxylic acid]",100 to 1000 nM
19,"O=C(O)c1[nH]nnc1Nc1ccc2ncsc2c1 [Compound 79, 4-(benzo[d]thiazol-6-ylamino)-1H-1,2,3-triazole-5-carboxylic acid]",1000 to 10000 nM
20,"O=C(O)c1[nH]nnc1Nc1ccc(F)c(F)c1 [Compound 80, 4-((3,4-difluorophenyl)amino)-1H-1,2,3-triazole-5-carboxylic acid]",100 to 1000 nM
21,"CC(C)(C)C(=O)OCOC(=O)c1[nH]nnc1Nc1ccc(-c2ccc(Cl)cc2)cc1 [Compound 81, (pivaloyloxy)methyl 4-((4′-chloro-[1,1′-biphenyl]-4-yl)amino)-1H-1,2,3-triazole-5-carboxylate]",1000 to 10000 nM
22,"O=C(O)c1[nH]nnc1Nc1ccc2cc(Cl)ccc2c1 [Compound 82, 4-((6-chloronaphthalen-2-yl)amino)-1H-1,2,3-triazole-5-carboxylic acid 2,2,2-trifluoroacetate]",100 to 1000 nM
23,"O=C(O)c1[nH]nnc1Nc1ccc(OC(F)(F)F)cc1 [Compound 83, 4-((4-(trifluoromethoxy)phenyl)amino)-1H-1,2,3-triazole-5-carboxylic acid]",100 to 1000 nM
24,"O=C(O)c1[nH]nnc1N1CCc2ccccc2C1 [Compound 84, 4-(3,4-dihydroisoquinolin-2(1H)-yl)-1H-1,2,3-triazole-5-carboxylic acid 2,2,2-trifluoroacetate]",100 to 1000 nM
25,"O=C(O)c1[nH]nnc1Nc1ccc2cc(Br)ccc2c1 [Compound 85, 4-((6-bromonaphthalen-2-yl)amino)-1H-1,2,3-triazole-5-carboxylic acid 2,2,2-trifluoroacetate]",< 100 nM
26,"CC(=O)OCn1nnc(Oc2ccc3cc(Br)ccc3c2)c1C(=O)O [Compound 101, 1-(acetoxymethyl)-4-((6-bromonaphthalen-2-yl)oxy)-1H-1,2,3-triazole-5-carboxylic acid]",100 to 1000 nM

# Next, values leading:
row,IC50,SMILES
1,< 100 nM,"O=C(O)c1[nH]nnc1Oc1ccc(-c2ccc(OC(F)(F)F)cc2)cc1 [Compound 87, 4-((4′-(trifluoromethoxy)-[1,1′-biphenyl]-4-yl)oxy)-1H-1,2,3-triazole-5-carboxylic acid]"
2,< 100 nM,"O=C(O)c1[nH]nnc1Oc1ccc2cc(Br)ccc2c1 [Compound 89, 4-((6-bromonaphthalen-2-yl)oxy)-1H-1,2,3-triazole-5-carboxylic acid]"
3,< 100 nM,"O=C(O)c1[nH]nnc1OC1CCN(c2ccc(OC(F)(F)F)cc2)C1 (stereo not shown) [Compound 90, 4-((1-(4-(trifluoromethoxy)phenyl)pyrrolidin-3-yl)oxy)-1H-1,2,3-triazole-5-carboxylic acid]"
4,< 100 nM,"O=C(O)c1[nH]nnc1Oc1cc(Cl)cc(Cl)c1 [Compound 91, 4-(3,5-dichlorophenoxy)-1H-1,2,3-triazole-5-carboxylic acid]"
5,< 100 nM,"O=C(O)c1nn[nH]c1Oc1ccc(Cl)c2ccccc12 [Compound 92, 4-((4-chloronaphthalen-1-yl)oxy)-1H-1,2,3-triazole-5-carboxylic acid]"
6,> 10000 nM,"COC(=O)c1[nH]nnc1Oc1ccc2cc(Br)ccc2c1 [Compound 93, methyl 4-((6-bromonaphthalen-2-yl)oxy)-1H-1,2,3-triazole-5-carboxylate]"
7,< 100 nM,"O=C(O)c1[nH]nnc1Oc1ccc(Cl)cc1Cl [Compound 95, 4-(2,4-dichlorophenoxy)-1H-1,2,3-triazole-5-carboxylic acid]"
8,< 100 nM,"O=C(O)c1[nH]nnc1Oc1ccc(OC(F)(F)F)cc1 [Compound 96, 4-(4-(trifluoromethoxy)phenoxy)-1H-1,2,3-triazole-5-carboxylic acid]"
9,< 100 nM,"O=C(O)c1[nH]nnc1Oc1ccc2c(c1)CCCC2 [Compound 97, 4-((5,6,7,8-tetrahydronaphthalen-2-yl)oxy)-1H-1,2,3-triazole-5-carboxylic acid]"
10,< 100 nM,"O=C(O)c1[nH]nnc1Oc1ccc2ncsc2c1 [Compound 99, 4-(benzo[d]thiazol-6-yloxy)-1H-1,2,3-triazole-5-carboxylic acid 2,2,2-trifluoroacetate]"
11,< 100 nM,"O=C(O)c1[nH]nnc1Oc1cc(Cl)ccc1Cl [Compound 100, 4-(2,5-dichlorophenoxy)-1H-1,2,3-triazole-5-carboxylic acid]"
